From ChEMBL document CHEMBL1142231, “Proline-rich tyrosine kinase 2 regulates osteoprogenitor cells and bone formation, and offers an anabolic treatment approach for osteoporosis” (Proc Natl Acad Sci U S A, 2007)
The source made the active and inactive calls. No cut-off for these calls is given here.

Legend:
Rattus norvegicus [1] = test: Effect on bone metabolism in po dosed ovariectomized Sprague-Dawley rat assessed as bone formation rate of proximal tibia cancellous bone; type: functional
Rattus norvegicus [2] = test: Prevention of bone loss in po dosed ovariectomized Sprague-Dawley rat assessed as osteoclast surface of proximal tibia cancellous bone; type: functional
Rattus norvegicus [3] = test: Effect on bone turnover in po dosed ovariectomized Sprague-Dawley rat assessed as mineralizing surface of proximal tibia cancellous bone; type: functional
Rattus norvegicus [4] = test: Effect on bone metabolism in ovariectomized Sprague-Dawley rat assessed as bone formation rate of proximal tibia cancellous bone at 10 mg/kg, po administered daily for 28 days; type: functional
Rattus norvegicus [5] = test: Effect on bone metabolism in ovariectomized Sprague-Dawley rat assessed as bone formation rate of proximal tibia cancellous bone at 30 mg/kg, po administered daily for 28 days; type: functional
Rattus norvegicus [6] = test: Prevention of bone loss in ovariectomized Sprague-Dawley rat assessed as osteoclast surface of proximal tibia cancellous bone at 10 mg/kg, po administered daily for 28 days; type: functional
Rattus norvegicus [7] = test: Prevention of bone loss in ovariectomized Sprague-Dawley rat assessed as osteoclast surface of proximal tibia cancellous bone at 30 mg/kg, po administered daily for 28 days; type: functional
Mesenchymal stem cell = test: Increase in alkaline phosphatase activity in human mesenchymal stem cells; type: functional, cell-based
Rattus norvegicus [8] = test: Effect on bone resorption in ovariectomized Sprague-Dawley rat assessed as serum C-telopeptide degradation product at 10 mg/kg, po administered daily for 28 days; type: functional, organism-based; set-up: dose 10 mg/kg
Rattus norvegicus [9] = test: Effect on bone resorption in ovariectomized Sprague-Dawley rat assessed as serum C-telopeptide degradation product at 30 mg/kg, po administered daily for 28 days; type: functional, organism-based; set-up: dose 30 mg/kg
Rattus norvegicus [10] = test: Increase in bone formation in ovariectomized Sprague-Dawley rat assessed as mineralizing surface of proximal tibia cancellous bone at 10 mg/kg, po administered daily for 28 days; type: functional
Rattus norvegicus [11] = test: Increase in bone formation in ovariectomized Sprague-Dawley rat assessed as mineralizing surface of proximal tibia cancellous bone at 30 mg/kg, po administered daily for 28 days; type: functional
Rattus norvegicus [12] = test: Increase in bone formation in ovariectomized Sprague-Dawley rat assessed as mineral apposition rate of proximal tibia cancellous bone at 10 mg/kg, po administered daily for 28 days; type: functional
Rattus norvegicus [13] = test: Increase in bone formation in ovariectomized Sprague-Dawley rat assessed as mineral apposition rate of proximal tibia cancellous bone at 30 mg/kg, po administered daily for 28 days; type: functional

Row | SMILES | Activity (Rattus norvegicus [1]) | Activity (Rattus norvegicus [2]) | Activity (Rattus norvegicus [3]) | Activity (Rattus norvegicus [4]) | Activity (Rattus norvegicus [5]) | Activity (Rattus norvegicus [6]) | Activity (Rattus norvegicus [7]) | Activity (Mesenchymal stem cell) | Activity (Rattus norvegicus [8]) | Activity (Rattus norvegicus [9]) | Activity (Rattus norvegicus [10]) | Activity (Rattus norvegicus [11]) | Activity (Rattus norvegicus [12]) | Activity (Rattus norvegicus [13])
1 | C#CC1(O)CC[C@H]2[C@@H]3CCc4cc(O)ccc4[C@H]3CC[C@@]21C (single isomer, unassigned) [ETHINYL ESTRADIOL] | 77.91 microm2/micrometer/d | 4.55% | 20.22% | – | – | – | – | – | – | – | – | – | – | –
2 | CN(c1ccccc1CNc1nc(Nc2ccc3c(c2)CC(=O)N3)ncc1C(F)(F)F)S(C)(=O)=O.Cl | – | – | – | 240.17 microm2/micrometer/d | 291.43 microm2/micrometer/d | 7.83% | 6.13% | Active | inactive | inactive | 36.81% | 40.6% | 1.77 micrometer/day | 1.96 micrometer/day
